Assay results taken from patent US20250082640A1, “Therapeutics for Hyponatremia and Polycystic Kidney Disease” (University of Cincinnati, priority 2021, published 2025).

Legend:
Rats = test: Metabolic cage study of rats fed diet supplemented with R3-AND or R4-AND (Example 2); format: in vivo, rat; settings: for food intake / water intake / urine volume / urine osmolality: day 4, in diet (R4-ADN at 0.15% weight/weight); for food intake: vs control (FIG. 7A); for water intake: vs control (FIG. 7B); for urine volume: vs control (FIG. 7C); for urine osmolality: vs control (FIG. 7D)
Male Sprague Dawley rats = test: Metabolic cage study of rats fed diet containing R2-ADN or adenine (Example 1, Table 1); format: in vivo, rat; settings: for Urine osmolality, Average Baseline / Urine osmolality, Baseline Day 1 / Urine osmolality, Baseline Day 2: baseline before treatment; for Urine osmolality, Day 1: treatment day 1; for Urine osmolality, Day 2: treatment day 2; for Urine osmolality, Day 3: treatment day 3; for Urine osmolality, Day 4: treatment day 4; for Urine osmolality, Day 5: treatment day 5; for Urine osmolality, Day 6: treatment day 6
Excerpt: The effects of R2-ADN on these physiologic parameters are dose- and time-dependent.
In addition, the effects of adenine (ADN) were compared to those of R2-ADN on these physiologic parameters.
Male Sprague Dawley rats were placed in metabolic cages and fed powdered rodent chow with access to distilled water ad libitum. After adjustment, baseline data were collected for 2 days and then rats were randomly divided into different groups. […]

salt transporter NKCC2 = settings: rat kidney medullary thick ascending limb, high dose; cited from earlier work
[1] = tested on: water channel aquaporin 2 (AQP2); settings: rat kidney collecting duct system, high dose; cited from earlier work
45 strains of mice = settings: single oral dose; cited from earlier work
[2] = tested on: primary human hepatocytes; settings: in vitro; cited from earlier work
[3] = rats of the 0.15% in diet group
[4] = rats, 0.15% in diet, adenine vs R2-ADN
[5] = rats of the 0.20% in diet group
[6] = rats of the 0.25% in diet group

Question: With `CN(C)c1ncnc2nc[nH]c12` [R4-ADN, 6-(Dimethylamino) purine] as the compound, how does the “potency relative to adenine in increasing water loss by the kidney” value (Rats) read?
Answer: The value was “more potent than adenine”.

Question: What about the food intake (Rats) of the same compound?
Answer: Its food intake is “significant reduction”.

Question: And the water intake (Rats)?
Answer: Its water intake is “significant increase”.

Question: And the urine volume (Rats)?
Answer: Its urine volume is “significant increase”.

Question: What about the urine osmolality (Rats) of the same compound?
Answer: The urine osmolality was “sharp reduction”.

Question: Which “potency relative to adenine in effects on water handling / water loss by the kidney” value (Male Sprague Dawley rats; rats) does the source give for `Nc1nc(Cl)nc2nc[nH]c12` [R2-ADN, 2-chloro-6-aminopurine] here?
Answer: The value was “more potent than adenine”.

Question: What about the “Urine osmolality, Average Baseline” value (Male Sprague Dawley rats; [3]) of the same compound?
Answer: Its value is 1558 mosm/kg H2O.

Question: What about the “Urine osmolality, Baseline Day 1” value (Male Sprague Dawley rats; [3]) of the same compound?
Answer: Its value is 1614 mosm/kg H2O.

Question: What about the “Urine osmolality, Baseline Day 2” value (Male Sprague Dawley rats; [3]) of the same compound?
Answer: Its value is 1502 mosm/kg H2O.

Question: What about the water intake (Male Sprague Dawley rats; rats, 0.075%, 0.15% or 0.25% in diet, 7 days, vs baseline and control, dose- and time-dependent (FIGS. 1A-1D)) of the same compound?
Answer: Its water intake is “significant increase”.

Question: And the urine volume (Male Sprague Dawley rats; rats, 0.075%, 0.15% or 0.25% in diet, 7 days, vs baseline and control, dose- and time-dependent (FIGS. 2A-2D))?
Answer: The urine volume was “significant increase”.

Question: What about the urine osmolality (Male Sprague Dawley rats; rats, 0.075%, 0.15% or 0.25% in diet, 7 days, vs baseline or control, dose- and time-dependent (FIGS. 3A-3D)) of the same compound?
Answer: Its urine osmolality is “sharp reduction”.

Question: What about the urine osmolality (Male Sprague Dawley rats; [4]) of the same compound?
Answer: Its urine osmolality is “significantly impaired”.

Question: What about the “urine volume / daily water balance” value (Male Sprague Dawley rats; [4]) of the same compound?
Answer: Its value is “significantly impaired”.

Question: What about the “Urine osmolality, Day 1” value (Male Sprague Dawley rats; rats, 0.15% in diet) of the same compound?
Answer: Its value is 1085 mosm/kg H2O.

Question: What about the “Urine osmolality, Day 2” value (Male Sprague Dawley rats; rats, 0.15% in diet) of the same compound?
Answer: The value was 625 mosm/kg H2O.

Question: What about the “Urine osmolality, Day 3” value (Male Sprague Dawley rats; rats, 0.15% in diet) of the same compound?
Answer: Its value is 720 mosm/kg H2O.

Question: What about the “Urine osmolality, Day 4” value (Male Sprague Dawley rats; rats, 0.15% in diet) of the same compound?
Answer: The value was 649 mosm/kg H2O.

Question: What about the “Urine osmolality, Day 5” value (Male Sprague Dawley rats; rats, 0.15% in diet) of the same compound?
Answer: The value was 657 mosm/kg H2O.

Question: What about the “Urine osmolality, Day 6” value (Male Sprague Dawley rats; rats, 0.15% in diet) of the same compound?
Answer: Its value is 508 mosm/kg H2O.

Question: What about the “reduction in urine osmolality” value (Male Sprague Dawley rats; rats, 0.15% in diet, within the second day of treatment) of the same compound?
Answer: Its value is ~60%.

Question: What about the food intake (Male Sprague Dawley rats; rats, high dose (0.25%), day 7 of feeding) of the same compound?
Answer: The food intake was “significant reduction”.

Question: What about the food intake (Male Sprague Dawley rats; rats, lower doses in diet (FIGS. 4A-4D)) of the same compound?
Answer: The food intake was “did not significantly alter”.

Question: And the “changes in body weight” value (Male Sprague Dawley rats; rats, vs control group (FIGS. 5A-5D))?
Answer: The value was “impacted the changes in body weight”.

Question: Which “NKCC2 gene expression and protein abundance” value (salt transporter NKCC2) does the source give for `Nc1ncnc2nc[nH]c12` [ADN, adenine] here?
Answer: Its value is “decreasing the gene expression and protein abundance”.

Question: And the “AQP2 gene expression and protein abundance” value [1]?
Answer: Its value is “decreasing the gene expression and protein abundance”.

Question: And the “Urine osmolality, Average Baseline” value (Male Sprague Dawley rats; [3])?
Answer: The value was 1890 mosm/kg H2O.

Question: And the “Urine osmolality, Baseline Day 1” value (Male Sprague Dawley rats; [3])?
Answer: The value was 1848 mosm/kg H2O.

Question: And the “Urine osmolality, Baseline Day 2” value (Male Sprague Dawley rats; [3])?
Answer: The value was 1933 mosm/kg H2O.

Question: And the “Urine osmolality, Average Baseline” value (Male Sprague Dawley rats; [5])?
Answer: The value was 1619 mosm/kg H2O.

Question: What about the “Urine osmolality, Baseline Day 1” value (Male Sprague Dawley rats; [5]) of the same compound?
Answer: Its value is 1638 mosm/kg H2O.

Question: And the “Urine osmolality, Baseline Day 2” value (Male Sprague Dawley rats; [5])?
Answer: Its value is 1599 mosm/kg H2O.

Question: And the “Urine osmolality, Average Baseline” value (Male Sprague Dawley rats; [6])?
Answer: The value was 1529 mosm/kg H2O.

Question: What about the “Urine osmolality, Baseline Day 1” value (Male Sprague Dawley rats; [6]) of the same compound?
Answer: Its value is 1648 mosm/kg H2O.

Question: What about the “Urine osmolality, Baseline Day 2” value (Male Sprague Dawley rats; [6]) of the same compound?
Answer: The value was 1410 mosm/kg H2O.

Question: What about the urine osmolality (Male Sprague Dawley rats; [4]) of the same compound?
Answer: The urine osmolality was “no effect”.

Question: And the “urine volume / daily water balance” value (Male Sprague Dawley rats; [4])?
Answer: Its value is “no effect”.

Question: And the “Urine osmolality, Day 1” value (Male Sprague Dawley rats; rats, 0.15% in diet)?
Answer: The value was 1750 mosm/kg H2O.

Question: And the “Urine osmolality, Day 2” value (Male Sprague Dawley rats; rats, 0.15% in diet)?
Answer: Its value is 1752 mosm/kg H2O.

Question: What about the “Urine osmolality, Day 3” value (Male Sprague Dawley rats; rats, 0.15% in diet) of the same compound?
Answer: The value was 1770 mosm/kg H2O.

Question: And the “Urine osmolality, Day 4” value (Male Sprague Dawley rats; rats, 0.15% in diet)?
Answer: The value was 1671 mosm/kg H2O.

Question: And the “Urine osmolality, Day 5” value (Male Sprague Dawley rats; rats, 0.15% in diet)?
Answer: The value was 1700 mosm/kg H2O.

Question: And the “Urine osmolality, Day 6” value (Male Sprague Dawley rats; rats, 0.15% in diet)?
Answer: The value was 1738 mosm/kg H2O.

Question: What about the “Urine osmolality, Day 1” value (Male Sprague Dawley rats; rats, 0.20% in diet) of the same compound?
Answer: Its value is 1475 mosm/kg H2O.

Question: What about the “Urine osmolality, Day 2” value (Male Sprague Dawley rats; rats, 0.20% in diet) of the same compound?
Answer: The value was 1371 mosm/kg H2O.

Question: What about the “Urine osmolality, Day 3” value (Male Sprague Dawley rats; rats, 0.20% in diet) of the same compound?
Answer: The value was 1354 mosm/kg H2O.

Question: And the “Urine osmolality, Day 4” value (Male Sprague Dawley rats; rats, 0.20% in diet)?
Answer: The value was 1296 mosm/kg H2O.

Question: What about the “Urine osmolality, Day 5” value (Male Sprague Dawley rats; rats, 0.20% in diet) of the same compound?
Answer: The value was 1279 mosm/kg H2O.

Question: What about the “Urine osmolality, Day 6” value (Male Sprague Dawley rats; rats, 0.20% in diet) of the same compound?
Answer: Its value is 1386 mosm/kg H2O.

Question: And the “Urine osmolality, Day 1” value (Male Sprague Dawley rats; rats, 0.25% in diet)?
Answer: Its value is 1198 mosm/kg H2O.

Question: And the “Urine osmolality, Day 2” value (Male Sprague Dawley rats; rats, 0.25% in diet)?
Answer: The value was 848 mosm/kg H2O.

Question: And the “Urine osmolality, Day 3” value (Male Sprague Dawley rats; rats, 0.25% in diet)?
Answer: The value was 976 mosm/kg H2O.

Question: What about the “Urine osmolality, Day 4” value (Male Sprague Dawley rats; rats, 0.25% in diet) of the same compound?
Answer: Its value is 1019 mosm/kg H2O.

Question: And the “Urine osmolality, Day 5” value (Male Sprague Dawley rats; rats, 0.25% in diet)?
Answer: Its value is 938 mosm/kg H2O.

Question: What about the “Urine osmolality, Day 6” value (Male Sprague Dawley rats; rats, 0.25% in diet) of the same compound?
Answer: The value was 956 mosm/kg H2O.

Question: What does the source list for `O=C(Nc1ncnc2nc[nH]c12)c1ccccc1` [R3-AND, N6-benzoyladenine]?
Answer: food intake (Rats): none of the measured parameters; water intake (Rats): none of the measured parameters; urine volume (Rats): none of the measured parameters; urine osmolality (Rats): none of the measured parameters

Question: With `Cc1ccccc1C(=O)Nc1ccc(C(=O)N2CCCC(O)c3cc(Cl)ccc32)c(C)c1` (stereo not shown) [tolvaptan] as the compound, how does the “signs of liver injury mechanisms” value (45 strains of mice) read?
Answer: Its value is “signs of mitochondrial dysfunction, increased oxidative stress, and activation of immune response”.

Question: And the hepatocyte toxicity [2]?
Answer: Its hepatocyte toxicity is “causes mitochondrial-induced apoptosis and oxidative stress”.
